System: Erwinia amylovora (Ea) strain AFRS-581
Assay: Fireblight blossom infection on potted 'Rome' apple trees inoculated with Erwinia amylovora, greenhouse
Assay type: in vivo
Conditions: 'Rome' apple blossoms sprayed with 10^8 CFU Ea, treated about 1 hour later, scored after 7 days; PM 3% weight by volume; copper hydroxide 0.5 g/l; Blight Ban 1 g/l; streptomycin 0.5 g/l
Description: The enhanced effect of reducing fireblight in apple trees with the pesticide delivery system of the present invention containing bactericides is examined and compared to conventional pesticides.
Experiments are conducted on potted trees of ‘Rome’ apple in a naturally illuminated greenhouse. When about 80% of the blooms are open, open blossoms are sprayed to drip with 10^8 CFU of Erwinia amylovora (Ea) strain AFRS-581. After drying for about 1 hour, each the following treatments are applied to six of the infected trees. Slurries containing particulate materials (PM) (3% weight by volume), water and copper hydroxide at 0.5 g/l (Copper Count N from Mineral Research Development Co., Charlotte, N.C., a bactericide), Blight Ban at 1 g/l (from Plant Health Technologies, Boise, Id., a microbial bactericide), or streptomycin at 0.5 g/l (from Novartis Crop Protection Inc., Greensboro, N.C., an antibiotic); and slurries containing PM (3% weight by volume) and water; and mixtures of water and copper hydroxide at 0.5 g/l, Blight Ban at 1 g/l, or streptomycin at 0.5 g/l are applied to the apple trees. […]
After 7 days, blossom necrosis symptoms are present and recorded. Disease data are expressed as percentage of blossom infect rate.

| SMILES | % Blossom Infection |
| --- | --- |
| [H]/N=C(/N)N[C@H]1[C@H](O)[C@@H](O)[C@H](O[C@@H]2O[C@@H](C)[C@](O)(C=O)[C@H]2O[C@@H]2O[C@@H](CO)[C@H](O)[C@@H](O)[C@@H]2NC)[C@@H](N/C(N)=N\[H])[C@@H]1O [streptomycin] | 83.3% |
| [Cu+2].[OH-].[OH-] [copper hydroxide] | 87.1% |

— patent US7018643B2, “Pesticide delivery system” (Engelhard Corporation, priority 2000, dated 2006)
